Experimental data from patent publication US7973056B2, “Triazole derivative or salt thereof” (Fujifilm Finechemicals Co., Ltd, priority 2008, dated 2011).
In brackets after ≈: the same amount, converted by molar mass.

System: Trichophyton rubrum ATCC 10218
Test: Antifungal activity test (in vitro), MIC
Type: cell-based
Settings: ATCC10218
Protocol: Minimum inhibitory concentration (MIC) of each of the compounds obtained in Examples 1 to 12 was measured for respective fungi at MOS Pharm Service, by the methods described in Antimicrobial Agents and Chemotherapy, vol. 3, pp. 40-48 (1973), Antimicrobial Agents and Chemotherapy, vol. 33, pp. 215-222 (1989) and Antimicrobial Agents and Chemotherapy, vol. 38, pp. 2362-2368 (1994). The measuring conditions are shown in the following. In this case, Voriconazol was used as a comparative compound. Trichophyton rubrum ATCC 10218; Cultured at 28° C. for 3 days using fluid Sabouraud medium, and this was used as a cell suspension. Each of the compounds of the invention was adjusted to a concentration of 1% by weight using dimethyl sulfoxide (DMSO) and a medium similar to the respective medium used in the above-mentioned fungal culture, having a final concentration of from 0.001 to 100 μg/ml, was prepared. Each of the inoculation cell suspensions prepared by the above-mentioned methods was inoculated onto this agar plate. […] In this connection, Voriconazol was used as the comparative compound C-1.

Q: How did the MIC turn out when `C[C@@H](N1CC=C(c2ccccn2)CC1)[C@](O)(Cn1cncn1)c1ccc(F)cc1F` [I-3, (2R,3R)-2-(2,4-difluorophenyl)-3-(3′,6′-dihydro-2,4′-bipyridin-1′(2′H)-yl)-1-(1,2,4-triazol-1-yl)butan-2-ol] was run?
A: 0.3 µg/mL (≈ 0.729 µM)
